Results as given in patent US9725484B2, “Methods and compositions for the treatment of bone remodeling disorders” (THE REGENTS OF THE UNIVERSITY OF MICHIGAN, priority 2013, dated 2017).
Starred links: 1 amine or outer side, 2 acyl side, 3 side chain; linkers in the order of their positions; H or OH if unused. Positions of bridges follow the written chain, without caps; N, C: chain ends. Non-standard residues stand in square brackets, D forms with d. Residues, ends and D or L forms follow the SMILES beside them. No end group written: not given here. CO = O=C([*:1])[*:2]; Nlys = NCCCCNCC(=O)O

Columns and labels:
CIA [1] = details: in vivo; cited from earlier work
[2] = test system: SE-activated NO signaling; experiment: Signal transduction assay: inhibition of SE-activated NO signaling; format: cell-based
Experimental: (§1) Surface plasmon resonance (SPR) and signal transduction assays were performed as previously described (Holoshitz et al., 2012; supra; Ling et al., 2010. PLoS ONE 5: e11703; Ling et al., 2012 Arthritis Rheum.). In vitro assays for OC differentiation, using primary bone marrow cells (BMCs) isolated from femurs and tibias, or PBMCs isolated from healthy blood donors were performed as previously described (Holoshitz et al., 2012; supra).

recombinant CRT = biological target: T1, recombinant CRT (Mus musculus, UniProt P14211); experiment: Surface plasmon resonance (SPR) binding assay: binding to CRT and competitive inhibition of SE ligand 65-79*0401 binding; details: for Potency of competitive inhibition of SE ligand binding to CRT: result in words
T1 construct: made in house
T1 sequence (P14211 18-416): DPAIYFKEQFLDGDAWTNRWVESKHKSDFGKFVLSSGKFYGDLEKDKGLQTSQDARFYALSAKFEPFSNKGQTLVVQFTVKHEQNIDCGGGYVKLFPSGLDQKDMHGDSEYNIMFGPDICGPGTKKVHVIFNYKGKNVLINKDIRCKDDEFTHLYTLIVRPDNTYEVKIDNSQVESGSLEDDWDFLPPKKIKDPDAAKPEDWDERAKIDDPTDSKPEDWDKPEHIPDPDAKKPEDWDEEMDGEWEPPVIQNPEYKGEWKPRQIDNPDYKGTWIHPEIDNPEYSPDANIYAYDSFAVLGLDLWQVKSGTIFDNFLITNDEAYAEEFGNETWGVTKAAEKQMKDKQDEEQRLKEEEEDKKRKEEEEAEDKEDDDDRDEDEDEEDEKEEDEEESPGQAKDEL
Text: Ficoll-Paque™, 4,5-Diaminofluorescein Diacetate (DAF-2 DA), 5-(and -6)-chloromethyl-2′,7′ dichlorodihydrofluorescein (CM-H2DCFDA), macrophage colony-stimulating factor (M-CSF), RANKL, denatured chicken collagen type II (CII), and complete Freund's Adjuvant (CFA) were purchased from previously listed sources. All other commercial reagents were purchased from Sigma (St Louis, Mo.). Linear peptides were synthesized and purified (>90%) as previously described (Ling et al., 2006 supra; Ling et al., 2007 Arthritis Res Ther 9: R5; Ling et al., 2007 The Journal of Immunology 179: 6359-6367; De Almeida et al., supra). Peptidomimetics were prepared by backbone cyclization (Kotake et al., 1999 J. Clin. Invest. 103: 1345-1352) of a 5mer peptide carrying the sequence DKCLA (SEQ ID NO: 1). Recombinant mouse CRT was purified as described (Ling and Holoshitz. 2007 The Journal of Immunology 179: 6359-6367).
as §1

CIA [3] = experiment: Collagen-induced arthritis (CIA) in DBA/1 mice; format: in vivo, mouse
Experimental: DBA/1 mice (7-10 week old) were immunization as described (Holoshitz, 2012, J. Immunol.) with chicken CII in CFA. In brief, 50 μl of an emulsion containing 100 μg of CII in 25 μl of 0.05 M acetic acid and 25 μl of CFA was injected intradermally at the base of the tail. Mice were injected once per week intraperitoneally with either 1 or 10 pg (HS4-4)c Trp at in 50 μl of PBS. Arthritis severity was determined as previously described (Holoshitz, 2012, J. Immunol.), using a visual scoring system on a 4-point scale for each paw: 0=no arthritis, 1=swelling and redness confined to digits, 2=minor swelling and redness spreading from the digits to the distal paw, and 3=major swelling and redness extending proximally from the paw.
Limbs were dissected and decalcified in 10% EDTA for 14 days at 4° C. After decalcification, the specimens were processed for paraffin embedding and serial sectioned. The histological sections were deparaffinized, rehydrated and stained with hematoxylin and eosin (H&E), or for tartrate-resistant acid phosphatase (TRAP) activity using a commercial kit (Kamiya Biomedical Company, Seattle, Wash.). To determine OC abundance, TRAP-positive multinucleated cells were counted. Data represent mean±SEM of the total number of OCs in front and rear paws+knees. Bone damage was evaluated by radiography and micro-computed tomography (micro-CT) as previously described (Holoshitz, 2012, J. Immunol.).

osteoclastogenesis = experiment: In vitro osteoclastogenesis / OC differentiation, cells not given; format: cell-based
Experimental: as §1

rodent cells = experiment: Literature: in vitro inhibition in rodent cells (Fridman et al.); format: cell-based
[4] = test system: osteoclastogenesis in mouse bone marrow cell cultures; experiment: In vitro OC differentiation assay, mouse bone marrow cell cultures; format: cell-based; details: FIG. 2E; for Inhibition of basal osteoclastogenesis: mouse bone marrow cell cultures; for Inhibition of SE-activated OC differentiation: mouse cells
Experimental: as §1

[5] = test system: SE-activated OC differentiation in human cells (PBMCs); experiment: In vitro OC differentiation assay, human PBMCs; format: cell-based; details: FIG. 2D
Experimental: Isolation of human peripheral blood mononuclear cells (PBMCs) and culture of M1 fibroblasts were previously described (Holoshitz et al., 2012, J. Immunol.). DBA/1 mice, 6 to 10 weeks old, were purchased from the Jackson Laboratory (Bar Harbor, Me.). Mice were maintained and housed at the University of Michigan-Unit for Laboratory Animal Medicine facility, and all experiments were performed in accordance with protocols approved by University of Michigan Committee on Use and Care of Animals.
as §1

[6] = biological target: T2, recombinant mouse CRT (calreticulin) (mouse, UniProt P14211 18-416, limits assumed); experiment: SPR, peptide as analyte, recombinant CRT immobilized
T2 construct: also called recombinant CRT
T2 sequence (looked up): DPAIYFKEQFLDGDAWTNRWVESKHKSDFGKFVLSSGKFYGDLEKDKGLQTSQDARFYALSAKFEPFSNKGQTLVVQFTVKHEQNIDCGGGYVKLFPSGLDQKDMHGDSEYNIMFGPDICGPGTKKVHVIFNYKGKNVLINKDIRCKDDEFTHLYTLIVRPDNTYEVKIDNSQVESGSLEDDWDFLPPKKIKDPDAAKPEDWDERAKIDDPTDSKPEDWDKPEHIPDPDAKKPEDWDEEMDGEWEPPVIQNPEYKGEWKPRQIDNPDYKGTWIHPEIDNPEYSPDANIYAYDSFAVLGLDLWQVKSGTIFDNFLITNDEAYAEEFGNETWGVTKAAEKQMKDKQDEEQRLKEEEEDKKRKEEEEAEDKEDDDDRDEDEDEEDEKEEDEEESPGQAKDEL

CN1CCN(c2cccc(Nc3nc4c(-c5ccc(S(C)(=O)=O)cc5)cccn4n3)c2)CC1 [CEP-33779]
Dose range with therapeutic efficacy in CIA (CIA [1]): mg/kg-range

HS(6-4)c Trp: backbone cyclic DKCLA (cDKCLA) peptidomimetic; cyclization linker m is 6 and n is 4 (bridge (positions not given here); not fully specified (bridges); also: backbone cyclized, linker m=6, n=4, 'Trp' in name unexplained)
IC50 [2]: 6.3 nM

HS(6-2)c Trp: backbone cyclic DKCLA (cDKCLA) peptidomimetic; cyclization linker m is 6 and n is 2 (bridge (positions not given here); not fully specified (bridges); also: backbone cyclized, linker m=6, n=2, 'Trp' in name unexplained)
IC50 [2]: 770 nM

DKCLA [Linear DKCLA]
Binding to CRT (recombinant CRT; peptide in the analyte, CRT immobilized on the biosensor chip): bound to CRT
Potency of competitive inhibition of SE ligand binding to CRT (recombinant CRT): low-μM-range
IC50 [2]: 35000 nM
Block of NO induction by the SE ligand ([2]; result in words): completely blocked

HS(3-4)c Trp (DKCLA; bridge (positions not given here); not fully specified (bridges); also: backbone cyclized, linker m=3, n=4, 'Trp' in name unexplained)
IC50 [2]: 4300 nM
Arthritis incidence (CIA [3]; weekly ip): does not inhibit
Arthritis severity (CIA [3]; weekly ip): does not inhibit
Inhibition of osteoclastogenesis (osteoclastogenesis; FIG. 2F): does not inhibit

C1=C/COCc2cc(ccc2OCCN2CCCC2)Nc2nccc(n2)-c2cccc(c2)COC/1 [SB1518]
Dose range with therapeutic efficacy in CIA (CIA [1]): mg/kg-range

CCS(=O)(=O)N1CC(CC#N)(n2cc(-c3ncnc4[nH]ccc34)cn2)C1 [INCB028050]
Dose range with therapeutic efficacy in CIA (CIA [1]): mg/kg-range
Potency lower than compound HS(4-4)c Trp (rodent cells): ~1000 fold

HS(4-6)c Trp: backbone cyclic DKCLA (cDKCLA) peptidomimetic; cyclization linker m is 4 and n is 6 (bridge (positions not given here); not fully specified (bridges); also: backbone cyclized, linker m=4, n=6, 'Trp' in name unexplained)
IC50 [2]: 560 nM

C[C@H](NC(=O)CN1CCCCNC(=O)NCCCCN(C(=O)[C@@H](N)Cc2c[nH]c3ccccc23)CC(=O)N[C@@H](CC(=O)O)C(=O)N[C@@H](CCCCN)C(=O)N[C@@H](CS)C1=O)C(N)=O [HS(4-4)c Trp] (H-W[Nlys]DKC[Nlys]A-NH2; linker 2-6 via CO)
Potency of competitive inhibition of SE ligand binding to CRT (recombinant CRT): low-pM
IC50 [2]: 0.0016 nM
SEAL potency relative to the linear DKCLA peptide [2]: 1,000,000 times
Concentrations blocking the SE signaling effects ([2]; result in words): low-pM
Inhibition of basal osteoclastogenesis [4]: sub-pM
Inhibition of SE-activated OC differentiation [4]: sub-pM
Dose range achieving disease amelioration effects (CIA [3]; mouse, in vivo): ng/kg-range
In vivo potency relative to INCB028050, SB1518, CEP-33779 (CIA [3]; mouse, in vivo): 1,000,000 fold
Arthritis incidence (CIA [3]; weekly ip): lower incidence
Arthritis severity (CIA [3]; weekly ip): significantly milder
Bone destruction, micro-CT imaging of joints (CIA [3]; weekly ip): lesser extent of bone destruction
OC abundance, synovial tissue histology (TRAP) (CIA [3]; weekly ip): lower OC abundance
Arthritis onset (CIA [3]; weekly ip, low-picogram doses): delayed onset
Inhibition of SE-activated OC differentiation [5]: sub-pM
Concentrations with inhibitory effect on OC differentiation (osteoclastogenesis; result in words): sub-to-low-pM

HS(3-3)c Trp: backbone cyclic DKCLA (cDKCLA) peptidomimetic; cyclization linker m is 3 and n is 3 (bridge (positions not given here); not fully specified (bridges); also: backbone cyclized, linker m=3, n=3, 'Trp' in name unexplained)
IC50 [2]: 0.0018 nM
Inhibition of basal osteoclastogenesis [4]: sub-pM
Inhibition of SE-activated OC differentiation [4]: sub-pM
Inhibition of SE-activated OC differentiation [5]: sub-pM

DKCLA (Synthetic linear 5mer; analyte in SPR) [linear DKCLA (SEQ ID NO: 1) peptide]
binding result [6]: binds
